Converted amounts (≈) assume the structure as drawn.
Tests used:
[1] = Kinetic solubility in aqueous buffer pH 7.4 by total chemiluminescent nitrogen determination (Analiza); conditions: aqueous buffer, pH 7.4, aqueous buffer, kinetic from dmso stock
cellular system = conditions: published cellular activity at 10 μM; cited from earlier work
[2] = tested on: BV2 (mouse microglia) cell line; experiment: pHrodo-myelin phagocytosis/cell viability high content imaging assay: viability (cell count, nuclear area, nuclear intensity); conditions: BV2 cells, 10 μM, cell count <70% control
Summary of the method: (§1)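 Duplicate single-point screen at 10 μM over 48 h, combined with pHrodo-myelin phagocytosis during the last 20 h. Cytotoxicity is taken from imaged cell counts and nuclear intensity changes, normalized to untreated wells as % control.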

[3] = tested on: BV2 (mouse microglia) cell line; experiment: pHrodo-myelin phagocytosis/cell viability high content imaging assay: phagocytosis signal; assay type: cell-based; conditions: BV2 cells, 10 μM
Summary of the method: (§2)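 Simultaneous phagocytosis/viability imaging at approximately 22 h after adding pHrodo-myelin. Rising intensity flagged early apoptosis and falling intensity later apoptosis.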

[4] = tested on: HMC3 (human microglia) cell line; experiment: as above; assay type: cell-based; conditions: HMC3 cells, 10 μM
Summary of the method: as §2

[5] = tested on: HMC3 (human microglia) cell line; experiment: pHrodo-myelin phagocytosis/cell viability high content imaging assay: viability (cell count, nuclear area, nuclear intensity); conditions: HMC3 cells, 10 μM, cell count <70% control
Summary of the method: as §1

Structure (SMILES) | solubility kinetic [1] | Reported as cell active (<10 μM) (cellular system) | Mouse microglial cytotoxicity at 10 μM (<70% control) [2] | Inhibition of mouse microglial phagocytosis at 10 μM (<70% control) [3] | Stimulation of human microglial phagocytosis at 10 μM (>150% control) [4] | Inhibition of human microglial phagocytosis at 10 μM (<70% control) [4] | Stimulation of mouse microglial phagocytosis at 10 μM (>150% control) [3] | Human microglial cytotoxicity at 10 μM (<70% control) [5]
N[C@@H](CC(=O)Nc1ccc(Oc2cc(F)c(F)cc2Br)cc1)C(=O)O [WAY 213613] | 148 µM (≈ 61.5 µg/mL) | Y (Published data supports that the compound is active in a cellular system when dosed at 10 μM (Y/N)) | Y (The compound was found to be cytotoxic (cell count threshold: <70% control) when murine immortalized microglial cells were dosed at 10 μM (Y: yes)) |  |  |  | Y (The compound was found to stimulate phagocytosis (response threshold: >150% control) when murine immortalized microglial cells were dosed at 10 μM (Y: yes)) | 
Oc1c(F)cc(-c2cnccc2-c2ccc(N3CCOCC3)cc2)cc1F [LJI308] | 3.7 µM (≈ 1.36 µg/mL) | Y (Published data supports that the compound is active in a cellular system when dosed at 10 μM (Y/N)) |  |  |  |  | Y (The compound was found to stimulate phagocytosis (response threshold: >150% control) when murine immortalized microglial cells were dosed at 10 μM (Y: yes)) | 
O=C(Nc1c[nH]nc1-c1nc2ccc(CN3CCOCC3)cc2[nH]1)NC1CC1 [AT9283] | 144 µM (≈ 55.1 µg/mL) | Y (Published data supports that the compound is active in a cellular system when dosed at 10 μM (Y/N)) | Y (The compound was found to be cytotoxic (cell count threshold: <70% control) when murine immortalized microglial cells were dosed at 10 μM (Y: yes)) | Y (The compound was found to inhibit phagocytosis (response threshold: <70% control) when murine immortalized microglial cells were dosed at 10 μM (Y: yes)) |  | Y (The compound was found to inhibit phagocytosis (response threshold: <70% control) when human immortalized microglial cells were dosed at 10 μM (Y: yes)) |  | 
CC(C)CCN1c2nc(Nc3cc(F)c(O)c(F)c3)ncc2N(C)C(=O)C1C (stereo not shown) [BI-D1870] | 0.8 µM (≈ 0.313 µg/mL) | Y (Published data supports that the compound is active in a cellular system when dosed at 10 μM (Y/N)) | Y (The compound was found to be cytotoxic (cell count threshold: <70% control) when murine immortalized microglial cells were dosed at 10 μM (Y: yes)) |  | Y (The compound was found to stimulate phagocytosis (response threshold: >150% control) when human immortalized microglial cells were dosed at 10 μM (Y: yes)) |  |  | Y (The compound was found to be cytotoxic (cell count threshold: <70% control) when human immortalized microglial cells were dosed at 10 μM (Y: yes))
CCOC(=O)c1sc(NC(=O)c2ccco2)c(SC#N)c1C [CBR-5884] | 2.8 µM (≈ 0.942 µg/mL) | N (tested/active at 15 μM) | Y (The compound was found to be cytotoxic (cell count threshold: <70% control) when murine immortalized microglial cells were dosed at 10 μM (Y: yes)) |  |  | Y (The compound was found to inhibit phagocytosis (response threshold: <70% control) when human immortalized microglial cells were dosed at 10 μM (Y: yes)) | Y (The compound was found to stimulate phagocytosis (response threshold: >150% control) when murine immortalized microglial cells were dosed at 10 μM (Y: yes)) | 
CCOC(=O)CS(=O)(=O)c1ccc([C@@H](CO)NC(=O)c2cc3c(Cl)c(Cl)c(C)cc3n2C)cc1 [BI-4916] | < 1.1 µM | Y (Published data supports that the compound is active in a cellular system when dosed at 10 μM (Y/N)) | Y (The compound was found to be cytotoxic (cell count threshold: <70% control) when murine immortalized microglial cells were dosed at 10 μM (Y: yes)) |  |  | Y (The compound was found to inhibit phagocytosis (response threshold: <70% control) when human immortalized microglial cells were dosed at 10 μM (Y: yes)) | Y (The compound was found to stimulate phagocytosis (response threshold: >150% control) when murine immortalized microglial cells were dosed at 10 μM (Y: yes)) | 
CCc1ccc(S(=O)(=O)c2ccccc2)cc1S(=O)(=O)NCCCN(C)C [sFRP-1 Inhibitor] | 164 µM (≈ 67.2 µg/mL) | Y (Published data supports that the compound is active in a cellular system when dosed at 10 μM (Y/N)) |  |  |  |  | Y (The compound was found to stimulate phagocytosis (response threshold: >150% control) when murine immortalized microglial cells were dosed at 10 μM (Y: yes)) | 
CCCCCCOc1cc2c(cc1N(C)c1ncc(C(=O)O)cn1)C(C)(C)CCC2(C)C [PA 452] | 13.9 µM (≈ 6.11 µg/mL) | Y (Published data supports that the compound is active in a cellular system when dosed at 10 μM (Y/N)) |  |  |  | Y (The compound was found to inhibit phagocytosis (response threshold: <70% control) when human immortalized microglial cells were dosed at 10 μM (Y: yes)) | Y (The compound was found to stimulate phagocytosis (response threshold: >150% control) when murine immortalized microglial cells were dosed at 10 μM (Y: yes)) | 

Continued, in another order:

solubility kinetic [1] | Structure (SMILES) | Reported as cell active (<10 μM) (cellular system) | Mouse microglial cytotoxicity at 10 μM (<70% control) [2] | Inhibition of mouse microglial phagocytosis at 10 μM (<70% control) [3] | Stimulation of human microglial phagocytosis at 10 μM (>150% control) [4] | Inhibition of human microglial phagocytosis at 10 μM (<70% control) [4] | Stimulation of mouse microglial phagocytosis at 10 μM (>150% control) [3] | Human microglial cytotoxicity at 10 μM (<70% control) [5]
161 µM (≈ 93.5 µg/mL) | COc1cc(Nc2ncc(F)c(Nc3ccc4c(n3)N(COP(=O)(O)O)C(=O)C(C)(C)O4)n2)cc(OC)c1OC [Fostamatinib] | Y (Published data supports that the compound is active in a cellular system when dosed at 10 μM (Y/N)) | Y (The compound was found to be cytotoxic (cell count threshold: <70% control) when murine immortalized microglial cells were dosed at 10 μM (Y: yes)) | Y (The compound was found to inhibit phagocytosis (response threshold: <70% control) when murine immortalized microglial cells were dosed at 10 μM (Y: yes)) | Y (The compound was found to stimulate phagocytosis (response threshold: >150% control) when human immortalized microglial cells were dosed at 10 μM (Y: yes)) |  |  | 
4.9 µM (≈ 2.33 µg/mL) | COc1cc(/C=C/c2ccc(NC(=O)/C=C/c3cc(OC)c(OC)c(OC)c3)cc2)cc(OC)c1 [STAT3-IN-3] | Y (Published data supports that the compound is active in a cellular system when dosed at 10 μM (Y/N)) | Y (The compound was found to be cytotoxic (cell count threshold: <70% control) when murine immortalized microglial cells were dosed at 10 μM (Y: yes)) | Y (The compound was found to inhibit phagocytosis (response threshold: <70% control) when murine immortalized microglial cells were dosed at 10 μM (Y: yes)) |  | Y (The compound was found to inhibit phagocytosis (response threshold: <70% control) when human immortalized microglial cells were dosed at 10 μM (Y: yes)) |  | 
< 1.1 µM | CCCc1cc(-c2nc(-c3ccc(C)cc3)cs2)ccn1 [Fatostatin] | Y (Published data supports that the compound is active in a cellular system when dosed at 10 μM (Y/N)) | Y (The compound was found to be cytotoxic (cell count threshold: <70% control) when murine immortalized microglial cells were dosed at 10 μM (Y: yes)) |  |  |  | Y (The compound was found to stimulate phagocytosis (response threshold: >150% control) when murine immortalized microglial cells were dosed at 10 μM (Y: yes)) | 
3.7 µM (≈ 1.49 µg/mL) | CCOC(=O)c1cccc(CNc2ccc(N(C)C(=O)Nc3ccccc3)cc2)c1 [GN6958 (Compound 8)] | Y (Published data supports that the compound is active in a cellular system when dosed at 10 μM (Y/N)) |  |  |  |  | Y (The compound was found to stimulate phagocytosis (response threshold: >150% control) when murine immortalized microglial cells were dosed at 10 μM (Y: yes)) | 
2.6 µM (≈ 1.03 µg/mL) | Cc1cc(C)nc(NC(=S)N2CCN(c3ccc(C(F)(F)F)cn3)CC2)c1 [NCT-502] | Y (Published data supports that the compound is active in a cellular system when dosed at 10 μM (Y/N)) |  |  |  |  | Y (The compound was found to stimulate phagocytosis (response threshold: >150% control) when murine immortalized microglial cells were dosed at 10 μM (Y: yes)) | 
< 2.1 µM | COC(=O)C1=C(C)NC2=C(C(=O)c3ccccc32)C1c1ccccc1OCc1ccccc1F (stereo not shown) [5408-1697] | Y (Published data supports that the compound is active in a cellular system when dosed at 10 μM (Y/N)) |  |  |  | Y (The compound was found to inhibit phagocytosis (response threshold: <70% control) when human immortalized microglial cells were dosed at 10 μM (Y: yes)) | Y (The compound was found to stimulate phagocytosis (response threshold: >150% control) when murine immortalized microglial cells were dosed at 10 μM (Y: yes)) | 

Reference: publication PMC9019904, “AD Informer Set: Chemical tools to facilitate Alzheimer's disease drug discovery” (Alzheimer's & Dementia : Translational Research & Clinical …, 2022)
